According to patent publication US20220211037A1, “BIOSENSORS FOR DROUGHT STRESS IN PLANTS” (The Regents of the University of California, priority 2019, published 2022):
Read-outs that look alike come from different tables or passages of the source.

What was measured:
[1] = biological target: T1, PYL3-Cy5.5/PYL3-BHQ3 heterodimer mixture (Arabidopsis thaliana, UniProt Q9SSM7); experiment: Fluorescence of 1:1 PYL3-Cy5.5 / PYL3-BHQ3 mixture as a function of ABA concentration; type: biochemical; details: for Fluorescence from Cy5.5 in monomers / Sum of Cy5.5 fluorescence / Total fluorescence / Fluorescence from Cy5.5 in heterodimers / Fluorescence from Cy5.5 in homodimers: calculated; for Total fluorescence: BHQ3 concentration attenuation factor 0.27; for Fluorescence from Cy5.5 in heterodimers: FRET quenching factor 0.1; for Fluorescence from Cy5.5 in homodimers: self-quenching factor 0.8
T1 construct: made in house; host or cells: E. coli BL21[DE3], pET28
T1 sequence (Q9SSM7 1-209) 1: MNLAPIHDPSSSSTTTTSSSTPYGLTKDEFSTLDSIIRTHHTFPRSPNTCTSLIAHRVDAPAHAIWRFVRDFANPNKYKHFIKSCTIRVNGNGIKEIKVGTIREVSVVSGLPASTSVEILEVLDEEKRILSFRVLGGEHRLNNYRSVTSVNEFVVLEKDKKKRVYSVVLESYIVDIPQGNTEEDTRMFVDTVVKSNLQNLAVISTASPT
T1 sequence (Q9SSM7 1-209) 2: T1 sequence (Q9SSM7 1-209) 1
Method: This increase should arise from more dissociated PYL3-Cy5.5/PYL3-BHQ3 monomers, which lead to decreased FRET quenching of Cy5.5 by BHQ3 in the heterodimers and decreased self-quenching from Cy5.5 in PYL3-Cy5.5/PYL3-Cy5.5 homodimers as shown in FIG. 2C. Assuming BHQ3 in PYL3-BHQ3 behaves similarly as free BHQ3 in solutions, BHQ3 concentration dependent attenuation (FIG. 3D) is 64%, i.e., fluorescence is decreased to 36% of the signal of pure Cy5.5, at the BHQ3-PYL3 concentration of 4.0 μM used in the measurements. FRET quenching of Cy5.5 by BHQ3 in heterodimers is assumed to be 90%. […] In calculating the final fluorescence intensities (Total fluorescence) in Table 1, we employ the self-quenching, FRET quenching and BHQ3 concentration-dependent attenuation efficiency of 20%, 90% and 73.2%, respectively. The corresponding factors are 0.8, 0.1 and 0.27, respectively. The BHQ3 concentration dependent attenuation efficiency is slightly higher than 64% measured using a mixture of 4 μM of Cy5.5 and 4 μM BHQ3. The calculated final fluorescence intensities are within the standard deviations of the measured values.
For the data presented in Table 1, a self-quenching efficiency of 20% and BHQ3 concentration dependent quenching shown in FIG. 3C are used for calculation together with a calibrated fluorescence intensity of 79,653 cps from 4.65 μM Cy5.5. Units of fluorescence intensity are counts per second (cps). The values are calculated unless specified otherwise.^a Fluorescence intensity=amount of Cy5.5×calibrated unit fluorescence intensity.^b Fluorescence intensity=amount of Cy5.5×self-quenching factor (0.8)×calibrated unit fluorescence intensity.^c Fluorescence intensity=amount of Cy5.5×FRET quenching factor (0.1)×calibrated unit fluorescence intensity.^d Sum of a, b, and c.^e Total fluorescence=BHQ3 concentration attenuation factor (0.27)×d.

[2] = biological target: T2, PYL3-Cy5.5 and PYL3-BHQ3 dimers (hetero- and homodimers) (Arabidopsis thaliana, UniProt Q9SSM7); experiment: Static light scattering (SLS) average molar mass of PYL3-Cy5.5 / PYL3-BHQ3 mixture as a function of ABA concentration; type: biochemical; details: for PYLs in dimers (hetero- and homodimers, %) / PYLs in monomers (%): calculated using the SLS data
T2 construct: made in house; host or cells: E. coli BL21[DE3], pET28
T2 sequence (Q9SSM7 1-209) 1: T1 sequence (Q9SSM7 1-209) 1
T2 sequence (Q9SSM7 1-209) 2: T1 sequence (Q9SSM7 1-209) 1
Method: (§1) UV-Vis absorption measurements were performed on PYL3-Cy5.5, PYL3-BHQ3, and a 1:1 mixture of PYL3 containing PYL3-Cy5.5 and PYL3-BHQ3 (Shimadzu UV-Vis-NIR spectrophotometer, UV1700). […] Static light scattering (SLS) was used to determine the average molar mass (Malvern Zetasizer Nano S90 fitted with a 633 nm He—Ne laser). The mass of PYL3, PYL3-Cy5.5 and PYL3-BHQ3 was measured using Bruker UltraFlextreme MALDI TOF. Samples for MALDI-TOF measurement were prepared using a dried droplet method in a 2,5-Dihydroxyacetophenone (2,5-DHAP) matrix. The mass spectra were acquired with laser repetition frequency of 0.7-1 kHz.

PYL3-Cy5.5 homodimers [3] = biological target: T3, PYL3-Cy5.5 homodimers (Arabidopsis thaliana, UniProt Q9SSM7); experiment: Static light scattering (SLS) average molecular mass of PYL3-Cy5.5 as a function of ABA concentration; type: biochemical
T3 construct: made in house; host or cells: E. coli BL21[DE3], pET28
T3 sequence (Q9SSM7 1-209): T1 sequence (Q9SSM7 1-209) 1
Method: as §1
Results from Static Light Scattering (SLS) measurements were used to estimate average molecular mass (FIG. 2D) based on molecular motion in solution, although the method is controversial when the molecular mass is on the order of a few thousand atomic mass units.

PYL3-Cy5.5 homodimers [4] = biological target: T3, PYL3-Cy5.5 homodimers; experiment: Fluorescence of PYL3-Cy5.5 as a function of ABA concentration (self-quenching); type: biochemical
Method: as §1
Fluorescence from PYL3 and BHQ3-PYL3 homodimers in aqueous solution is weak, whereas fluorescence from PYL3-Cy5.5 homodimers (FIG. 2B) was as similarly intense as that of Cy5.5. […] If there is no change to the fluorescence intensity, then no self-quenching occurs. […] This quenching efficiency was used to estimate the quenching efficiency between Cy5.5 and BHQ3 in PYL3 heterodimers.

[5] = biological target: T4, homodimeric receptor PYL3 (Arabidopsis thaliana, UniProt Q9SSM7); details: read-out: equilibrium dissociation constant (Kd) of homodimeric receptor PYL3, cited from earlier work
T4 sequence (Q9SSM7 1-209): T1 sequence (Q9SSM7 1-209) 1

In the case of CC1=CC(=O)CC(C)(C)[C@@]1(O)/C=C/C(C)=C\C(=O)O [ABA, abscisic acid], the “ABA concentration the current design can detect” value [1] is reported as 200 nM, the “Fluorescence (measured)” value ([1]; ABA 0.1 μM) is reported as 3960 cps and the “Fluorescence from Cy5.5 in monomers” value ([1]; ABA 0.1 μM) is reported as 630 cps. For the same molecule, the “Sum of Cy5.5 fluorescence” value ([1]; ABA 0.1 μM) was 14553 cps, the Total fluorescence ([1]; ABA 0.1 μM) was 4045 cps and the “Fluorescence from Cy5.5 in heterodimers” value ([1]; ABA 0.1 μM) was 1575 cps. The “Fluorescence from Cy5.5 in homodimers” value ([1]; ABA 0.1 μM) was 12348 cps, the “Fluorescence (measured)” value ([1]; ABA 1.0 μM) was 4292 cps and the “Fluorescence from Cy5.5 in monomers” value ([1]; ABA 1.0 μM) was 5040 cps. The “Sum of Cy5.5 fluorescence” value ([1]; ABA 1.0 μM) was 16974 cps, the Total fluorescence ([1]; ABA 1.0 μM) was 4718 cps and the “Fluorescence from Cy5.5 in heterodimers” value ([1]; ABA 1.0 μM) was 1350 cps. The “Fluorescence from Cy5.5 in homodimers” value ([1]; ABA 1.0 μM) was 10584 cps, the “Fluorescence (measured)” value ([1]; ABA 40 μM) was 5301 cps and the “Fluorescence from Cy5.5 in monomers” value ([1]; ABA 40 μM) was 10080 cps. For the same molecule, the “Sum of Cy5.5 fluorescence” value ([1]; ABA 40 μM) was 19741 cps, the Total fluorescence ([1]; ABA 40 μM) was 5488 cps and the “Fluorescence from Cy5.5 in heterodimers” value ([1]; ABA 40 μM) was 1092 cps. The “Fluorescence from Cy5.5 in homodimers” value ([1]; ABA 40 μM) was 8568 cps, the “Fluorescence (measured)” value ([1]; ABA 100 μM) was 6711 cps and the “Fluorescence from Cy5.5 in monomers” value ([1]; ABA 100 μM) was 21420 cps. The “Sum of Cy5.5 fluorescence” value ([1]; ABA 100 μM) was 25866 cps, the Total fluorescence ([1]; ABA 100 μM) was 7218 cps and the “Fluorescence from Cy5.5 in heterodimers” value ([1]; ABA 100 μM) was 514 cps. The “Fluorescence from Cy5.5 in homodimers” value ([1]; ABA 100 μM) was 4032 cps, the “Fluorescence (measured)” value ([1]; ABA 1000 μM) was 9494 cps and the “Fluorescence from Cy5.5 in monomers” value ([1]; ABA 1000 μM) was 25200 cps. For the same molecule, the “Sum of Cy5.5 fluorescence” value ([1]; ABA 1000 μM) was 28035 cps, the Total fluorescence ([1]; ABA 1000 μM) was 7793 cps and the “Fluorescence from Cy5.5 in heterodimers” value ([1]; ABA 1000 μM) was 315 cps. The “Fluorescence from Cy5.5 in homodimers” value ([1]; ABA 1000 μM) was 2520 cps, the “change of fluorescence intensity of the mixture” value ([1]; ABA increased from less than one μM to one mM) was “more than doubled” and the “increase of fluorescence signal of the mixture” value ([1]; upon mixing with 100 μM ABA) was “more than 50%”. For the same molecule, the “average molecule mass (SLS) of PYL3-Cy5.5 / PYL3-BHQ3 mixture” value ([2]; 100 nM ABA) was 50 kDa, the “Average molar mass (measured, amu)” value ([2]; ABA 0.1 μM) was 51110 amu and the “PYLs in dimers (hetero- and homodimers, %)” value ([2]; ABA 0.1 μM) was 98%. The “PYLs in monomers (%)” value ([2]; ABA 0.1 μM) was 2%, the “Average molar mass (measured, amu)” value ([2]; ABA 1.0 μM) was 47410 amu and the “PYLs in dimers (hetero- and homodimers, %)” value ([2]; ABA 1.0 μM) was 84%. For the same molecule, the “PYLs in monomers (%)” value ([2]; ABA 1.0 μM) was 16%, the “Average molar mass (measured, amu)” value ([2]; ABA 40 μM) was 43330 amu and the “PYLs in dimers (hetero- and homodimers, %)” value ([2]; ABA 40 μM) was 68%. For the same molecule, the “PYLs in monomers (%)” value ([2]; ABA 40 μM) was 32%, the “Average molar mass (measured, amu)” value ([2]; ABA 100 μM) was 34050 amu and the “PYLs in dimers (hetero- and homodimers, %)” value ([2]; ABA 100 μM) was 32%. For the same molecule, the “PYLs in monomers (%)” value ([2]; ABA 100 μM) was 68%, the “Average molar mass (measured, amu)” value ([2]; ABA 1000 μM) was 31080 amu and the “PYLs in dimers (hetero- and homodimers, %)” value ([2]; ABA 1000 μM) was 20%. The “PYLs in monomers (%)” value ([2]; ABA 1000 μM) was 80%, the “PYL3-Cy5.5 in the homodimer form” value (PYL3-Cy5.5 homodimers [3]; 0.1 μM ABA) was 94% and the “average molecular mass (SLS)” value (PYL3-Cy5.5 homodimers [3]; 0.1 μM ABA) was 50 kDa. For the same molecule, the “PYL3-Cy5.5 in the monomeric form” value (PYL3-Cy5.5 homodimers [3]; 0.1 μM ABA, 51.6 kDa homodimers, 25.8 kDa monomers chosen) was 6%, the “PYL3-Cy5.5 in the homodimer form” value (PYL3-Cy5.5 homodimers [3]; 1 mM ABA) was 24% and the “PYL3-Cy5.5 in the monomeric form” value (PYL3-Cy5.5 homodimers [3]; 1 mM ABA) was 76%. The “average molecular mass (SLS)” value (PYL3-Cy5.5 homodimers [3]; 1 mM ABA) was 30 kDa, the “decrease of average molecular mass of the species in solution” value (PYL3-Cy5.5 homodimers [3]; ABA increases from 100 nM to 40 μM) was about 20% and the “further decrease of average molecular mass of the species in solution” value (PYL3-Cy5.5 homodimers [3]; ABA increases from 50 to 100 μM) was 20%. For the same molecule, the “increase of fluorescence intensity of PYL3-Cy5.5” value (PYL3-Cy5.5 homodimers [4]; ABA increases from 0.1 μM to 1 mM, on average) was 20%.

For “PYL3: Arabidopsis abscisic acid receptor PYL3 (SEQ ID NO:4), recombinant, forms homodimers that monomerize upon ABA binding”, the Kd ([5]; at saturating ABA concentrations) is listed as 52 µM and the Kd ([5]; without ABA) is listed as 7.76 µM.

With “PYL3-Cy5.5: PYL3 protein monomer chemically conjugated to the fluorescent molecule Cy5.5” the “self-quenching in the PYL3-Cy5.5 homodimers” value (PYL3-Cy5.5 homodimers [4]; absence of ABA, aqueous solution) was “at least 20%”.
